Source: article PMC4819188, “BitterX: a tool for understanding bitter taste in humans” (Scientific Reports, 2016)
Read-outs that look alike come from different tables or passages of the source.

What was measured:
Assay in all cases: calcium imaging (Fluo-4) dose-response, HEK293T
Assay type in all cases: cell-based
TAS2R41 = molecular target: T1, TAS2R41 (Homo sapiens, UniProt P59536)
T1 construct: full ORF from human genomic DNA with N-terminal rhodopsin tag (first 20 residues), pCI; HEK293T with Galpha16/gust44
T1 sequence (P59536 1-307): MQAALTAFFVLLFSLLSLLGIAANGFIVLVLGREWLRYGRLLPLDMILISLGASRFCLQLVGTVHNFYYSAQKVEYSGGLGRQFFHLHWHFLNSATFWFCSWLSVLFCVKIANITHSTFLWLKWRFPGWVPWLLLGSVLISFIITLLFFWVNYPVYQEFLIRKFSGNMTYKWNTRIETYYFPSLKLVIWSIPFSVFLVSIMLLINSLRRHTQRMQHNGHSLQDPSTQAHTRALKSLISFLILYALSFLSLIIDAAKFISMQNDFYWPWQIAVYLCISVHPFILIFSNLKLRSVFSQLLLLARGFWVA
Text: calcium imaging (Fluo-4) dose-response, HEK293T on TAS2R41

TAS2R4 = molecular target: T2, TAS2R4 (Homo sapiens, UniProt Q9NYW5)
T2 construct: full ORF from human genomic DNA with N-terminal rhodopsin tag (first 20 residues), pCI; HEK293T with Galpha16/gust44
T2 sequence (Q9NYW5 1-299): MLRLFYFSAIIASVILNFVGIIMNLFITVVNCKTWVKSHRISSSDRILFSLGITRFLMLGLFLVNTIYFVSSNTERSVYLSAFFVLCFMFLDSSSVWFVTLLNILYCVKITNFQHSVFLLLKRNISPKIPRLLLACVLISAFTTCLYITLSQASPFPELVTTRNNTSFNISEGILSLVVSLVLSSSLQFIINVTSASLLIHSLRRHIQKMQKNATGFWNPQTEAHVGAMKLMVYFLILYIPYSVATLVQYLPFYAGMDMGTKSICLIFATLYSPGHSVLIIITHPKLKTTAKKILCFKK
Text: calcium imaging (Fluo-4) dose-response, HEK293T on TAS2R4

TAS2R10 = molecular target: T3, TAS2R10 (Homo sapiens, UniProt Q9NYW0)
T3 construct: full ORF from human genomic DNA with N-terminal rhodopsin tag (first 20 residues), pCI; HEK293T with Galpha16/gust44
T3 sequence (Q9NYW0 1-307): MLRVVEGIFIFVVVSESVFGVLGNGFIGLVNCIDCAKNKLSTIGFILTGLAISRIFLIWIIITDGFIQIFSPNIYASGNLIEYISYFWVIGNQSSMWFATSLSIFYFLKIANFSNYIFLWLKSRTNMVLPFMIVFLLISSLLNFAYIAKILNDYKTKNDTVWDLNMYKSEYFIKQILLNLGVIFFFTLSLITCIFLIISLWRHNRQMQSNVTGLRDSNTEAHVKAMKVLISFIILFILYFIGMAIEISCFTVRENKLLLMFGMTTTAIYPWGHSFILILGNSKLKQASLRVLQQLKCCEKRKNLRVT
Text: calcium imaging (Fluo-4) dose-response, HEK293T on TAS2R10

TAS2R14 = molecular target: T4, TAS2R14 (Homo sapiens, UniProt Q9NYV8)
T4 construct: full ORF from human genomic DNA with N-terminal rhodopsin tag (first 20 residues), pCI; HEK293T with Galpha16/gust44
T4 sequence (Q9NYV8 1-317): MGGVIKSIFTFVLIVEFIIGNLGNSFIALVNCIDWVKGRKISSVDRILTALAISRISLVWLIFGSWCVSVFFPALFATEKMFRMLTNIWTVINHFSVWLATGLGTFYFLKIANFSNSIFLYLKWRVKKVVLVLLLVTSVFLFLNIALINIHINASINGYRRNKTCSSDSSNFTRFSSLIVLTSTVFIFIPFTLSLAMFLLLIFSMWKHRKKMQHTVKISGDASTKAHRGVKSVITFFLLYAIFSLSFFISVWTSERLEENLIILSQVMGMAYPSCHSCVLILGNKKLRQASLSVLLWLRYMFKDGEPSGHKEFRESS
Text: calcium imaging (Fluo-4) dose-response, HEK293T on TAS2R14

TAS2R16 = molecular target: T5, TAS2R16 (Homo sapiens, UniProt Q9NYV7)
T5 construct: full ORF from human genomic DNA with N-terminal rhodopsin tag (first 20 residues), pCI; HEK293T with Galpha16/gust44
T5 sequence (Q9NYV7 1-291): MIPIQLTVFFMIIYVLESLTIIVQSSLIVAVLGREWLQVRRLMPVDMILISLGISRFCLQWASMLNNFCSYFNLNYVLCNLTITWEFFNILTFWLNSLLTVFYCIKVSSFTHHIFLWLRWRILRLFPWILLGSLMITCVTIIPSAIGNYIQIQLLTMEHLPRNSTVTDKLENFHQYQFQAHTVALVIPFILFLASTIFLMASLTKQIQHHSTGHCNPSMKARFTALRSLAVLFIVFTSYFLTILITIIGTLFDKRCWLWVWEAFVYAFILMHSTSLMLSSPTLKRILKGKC
Text: calcium imaging (Fluo-4) dose-response, HEK293T on TAS2R16

TAS2R46 = molecular target: T6, TAS2R46 (Homo sapiens, UniProt P59540)
T6 construct: full ORF from human genomic DNA with N-terminal rhodopsin tag (first 20 residues), pCI; HEK293T with Galpha16/gust44
T6 sequence (P59540 1-309): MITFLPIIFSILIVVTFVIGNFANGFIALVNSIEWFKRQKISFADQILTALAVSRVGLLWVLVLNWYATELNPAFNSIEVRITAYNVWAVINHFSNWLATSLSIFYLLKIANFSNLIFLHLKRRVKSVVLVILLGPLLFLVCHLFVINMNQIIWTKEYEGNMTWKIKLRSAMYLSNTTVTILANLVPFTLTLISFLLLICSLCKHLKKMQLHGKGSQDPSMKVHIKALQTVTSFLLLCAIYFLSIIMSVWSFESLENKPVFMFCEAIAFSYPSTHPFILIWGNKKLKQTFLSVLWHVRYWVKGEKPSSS
Text: calcium imaging (Fluo-4) dose-response, HEK293T on TAS2R46

TAS2R39 = molecular target: T7, TAS2R39 (Homo sapiens, UniProt P59534)
T7 construct: full ORF from human genomic DNA with N-terminal rhodopsin tag (first 20 residues), pCI; HEK293T with Galpha16/gust44
T7 sequence (P59534 1-338): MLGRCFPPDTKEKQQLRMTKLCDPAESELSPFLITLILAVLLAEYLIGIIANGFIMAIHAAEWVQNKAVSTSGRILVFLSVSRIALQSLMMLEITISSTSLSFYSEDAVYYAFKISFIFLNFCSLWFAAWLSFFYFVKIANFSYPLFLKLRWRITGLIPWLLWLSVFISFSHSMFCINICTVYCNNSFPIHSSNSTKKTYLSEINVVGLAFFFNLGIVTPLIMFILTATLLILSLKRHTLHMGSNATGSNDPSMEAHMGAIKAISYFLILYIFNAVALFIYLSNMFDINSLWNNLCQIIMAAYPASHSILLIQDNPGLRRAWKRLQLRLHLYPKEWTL
Text: calcium imaging (Fluo-4) dose-response, HEK293T on TAS2R39

Compound | EC50 (TAS2R10) [µM] | EC50 (TAS2R14) [µM] | EC50 (TAS2R10; read-out: Log EC50 (converted)) [µM] | EC50 (TAS2R14; read-out: Log EC50 (converted)) [µM] | other results
N=C(N)NC(=N)Nc1ccccc1 [compound 1, 1] | 1540 | 760 | – | – | EC50 (TAS2R41): 3320 µM; EC50 (TAS2R4): 3710 µM
NC(=O)c1ccccc1O [compound 2, 2] | – | – | 9750 | 356 | EC50 (TAS2R16): 489 µM
COc1ccccc1C=O [compound 4, 4] | – | – | 4000 | 1230 | –
COc1cc(/C=C\C(=O)O)cc(S(=O)(=O)Nc2ccc(C(=O)O)cc2)c1OC [compound 5, 5] | 4000 | 232 | – | – | EC50 (TAS2R46): 138 µM; EC50 (TAS2R39): 84.1 µM
c1ccc(CC2=NCCN2)cc1 [ww3] | – | 1280 | – | – | –
